Measurements published in paper PMC5100903, “Tissue Kallikrein Inhibitors Based on the Sunflower Trypsin Inhibitor Scaffold – A Potential Therapeutic Intervention for Skin Diseases” (PLoS ONE, 2016).
Positions of bridges follow the written chain, without caps; N, C: chain ends. Residues, ends and D or L forms follow the SMILES beside them.

Tested on: in vitro skin equivalent cultures (primary human keratinocytes and fibroblasts)
Experiment: Organotypic skin culture, in-situ zymography with casein substrate
Assay type: cell-based
Details: 10 μM in PBS, topical, once every day for two days
Method: Primary keratinocytes and fibroblasts were isolated from skin biopsies from healthy donors and incubated with 0.25% trypsin/EDTA 3 hours for keratinocytes and Serva 50U/ml collagenase NB6 (Universal Biologicals, Cambridge, UK) 2 hours for fibroblasts. Isolated primary keratinocytes were then co-cultured with lethally irradiated 3T3 mouse fibroblasts and grown in keratinocyte culture media. Primary keratinocytes and fibroblasts from normal donors’ skin biopsies were cultivated in vitro on de-epidermalized dermal matrix as described. Briefly, dermal fibroblasts derived from skin biopsies were seeded onto the reticular side of the de-epidermalized dermal matrix and keratinocytes were seeded on the papillary side. After keratinocytes reached confluence, the culture was lifted at the air-liquid interface for 14 days. The OTCs were then topically treated with Analogue 6 (10 μL, 10 μM) or 1xPBS for the untreated control in two doses each separated by 24hrs. Following treatment, the cultures were harvest and embedded in O.C.T.™ (Sakura Finetek, Netherlands) for cryosections. The cryosections (7 μm thick) of the treated and untreated tissues were washed with 1xPBS. […] Sections were examined under a Leica DM LB fluorescence microscope and the images processed using ImageJ (v1.46).

For `CC[C@H](C)[C@@H]1NC(=O)[C@H](CO)NC(=O)[C@H](CCCNC(=N)N)NC(=O)[C@H]([C@@H](C)O)NC(=O)[C@@H]2CSSC[C@H](NC(=O)[C@H](Cc3c[nH]cn3)NC(=O)[C@@H]3CCCN3C(=O)[C@@H]3CCCN3C1=O)C(=O)N[C@@H](Cc1c[nH]c3ccccc13)C(=O)N1CCC[C@H]1C(=O)N[C@@H](CC(=O)O)C(=O)NCC(=O)N[C@@H](CCCNC(=N)N)C(=O)N2` [Analogue 6] (cyclo(CTRSIPPHCWPDGR); disulfide 1-9), the “penetration of the cornified layer of in vitro grown skin” value was “penetrated the cornified layer” and the “skin protease activity in epidermis (in-situ zymography)” value was “weaker in the epidermis of the treated skin compared to untreated skin”.
